Results reported in US12102089B2, “Method for inactivating mold spores” (DSM IP ASSETS B.V., priority 2017, dated 2024).

Tested on: Talaromyces emersonii (CBS 236.58)
Assay: Heat treatment of Talaromyces emersonii spores in ice tea with natamycin, visual growth
Type: cell-based
Set-up: key to growth or no growth: growth (+); no growth (−)
Experimental: Commercially available ice tea (Lipton, peach flavor, non-carbonated, 1.5 L) was adjusted to high water hardness by adding 1 ml of a solution of 39 g CaCl2 and 27 g MgCl2 added to 934 g water. ⅓ of this ice tea preparation (the pH of which was 3.15) was left as-such, ⅓ of the preparation was enriched with 5 ppm natamycin and ⅓ of the preparation was enriched with 10 ppm natamycin. Samples of 5 ml were made from each preparation in 15 ml sterile plastic tubes. Of each preparation 8 samples were pre-heated to the desired pasteurization temperature using a water bath. Temperatures used were RT, 60, 65, 70, 75, 80, 85 and 90° C. When the desired temperature was reached, 100 μl of a 2500 spores/ml spore suspension of Aspergillus niger ATCC 9029AA was added to each tube. Subsequently, the samples were kept for 30 seconds at the temperature in question in the water bath. Next, the samples were cooled on ice to a temperature of 25° C. Samples were incubated at 25° C. and visually examined for growth (formation of mold flakes or turbidity) for two months. Additionally, samples were enumerated according to ISO protocol 21527-1.2008 on day 0 (before heat treatment) and day 1 (after heat treatment) to count immediate loss of viability. […] For the results, see Table 1. […] Example 1 was repeated however with Talaromyces emersonii (CBS 236.58, 1000 spores/ml) instead of Aspergillus niger.

With `C[C@@H]1C/C=C/C=C/C=C/C=C/[C@H](O[C@@H]2O[C@H](C)[C@@H](O)[C@H](N)[C@@H]2O)C[C@@H]2O[C@](O)(C[C@@H](O)C[C@H]3O[C@@H]3/C=C/C(=O)O1)C[C@H](O)[C@H]2C(=O)O` [natamycin] as the molecule, how does the “growth or no growth” value (60°C, 5 ppm, day 1) read?
The value was “−”.

And the “growth or no growth” value (60°C, 5 ppm, day 2)?
Its value is “−”.

What about the “growth or no growth” value (60°C, 5 ppm, day 3) of the same molecule?
The value was “−”.

And the “growth or no growth” value (60°C, 5 ppm, day 4)?
Its value is “−”.

What about the “growth or no growth” value (60°C, 5 ppm, day 5) of the same molecule?
The value was “−”.

What about the “growth or no growth” value (60°C, 5 ppm, day 6) of the same molecule?
The value was “−”.

And the “growth or no growth” value (60°C, 5 ppm, day 7)?
Its value is “−”.

What about the “growth or no growth” value (60°C, 5 ppm, day 8) of the same molecule?
The value was “−”.

And the “growth or no growth” value (60°C, 5 ppm, day 9)?
Its value is “−”.

And the “growth or no growth” value (60°C, 5 ppm, day 10)?
The value was “−”.

And the “growth or no growth” value (60°C, 5 ppm, day 11)?
Its value is “−”.

And the “growth or no growth” value (60°C, 5 ppm, day 12)?
Its value is “−”.

And the “growth or no growth” value (60°C, 5 ppm, day 13)?
Its value is “−”.

And the “growth or no growth” value (60°C, 5 ppm, day 14)?
The value was “−”.

What about the “growth or no growth” value (60°C, 10 ppm, day 1) of the same molecule?
Its value is “−”.

And the “growth or no growth” value (60°C, 10 ppm, day 2)?
The value was “−”.

What about the “growth or no growth” value (60°C, 10 ppm, day 3) of the same molecule?
Its value is “−”.

What about the “growth or no growth” value (60°C, 10 ppm, day 4) of the same molecule?
Its value is “−”.

What about the “growth or no growth” value (60°C, 10 ppm, day 5) of the same molecule?
Its value is “−”.

And the “growth or no growth” value (60°C, 10 ppm, day 6)?
The value was “−”.

What about the “growth or no growth” value (60°C, 10 ppm, day 7) of the same molecule?
Its value is “−”.

And the “growth or no growth” value (60°C, 10 ppm, day 8)?
The value was “−”.

And the “growth or no growth” value (60°C, 10 ppm, day 9)?
The value was “−”.

What about the “growth or no growth” value (60°C, 10 ppm, day 10) of the same molecule?
The value was “−”.

And the “growth or no growth” value (60°C, 10 ppm, day 11)?
Its value is “−”.

What about the “growth or no growth” value (60°C, 10 ppm, day 12) of the same molecule?
Its value is “−”.

And the “growth or no growth” value (60°C, 10 ppm, day 13)?
Its value is “−”.

And the “growth or no growth” value (60°C, 10 ppm, day 14)?
Its value is “−”.

And the “growth or no growth” value (65°C, 5 ppm, day 1)?
The value was “−”.

What about the “growth or no growth” value (65°C, 5 ppm, day 2) of the same molecule?
The value was “−”.

And the “growth or no growth” value (65°C, 5 ppm, day 3)?
The value was “−”.

What about the “growth or no growth” value (65°C, 5 ppm, day 4) of the same molecule?
The value was “+”.

What about the “growth or no growth” value (65°C, 5 ppm, day 5) of the same molecule?
The value was “+”.

And the “growth or no growth” value (65°C, 5 ppm, day 6)?
The value was “+”.

What about the “growth or no growth” value (65°C, 5 ppm, day 7) of the same molecule?
The value was “+”.

What about the “growth or no growth” value (65°C, 5 ppm, day 8) of the same molecule?
Its value is “+”.

And the “growth or no growth” value (65°C, 5 ppm, day 9)?
Its value is “+”.

What about the “growth or no growth” value (65°C, 5 ppm, day 10) of the same molecule?
Its value is “+”.

And the “growth or no growth” value (65°C, 5 ppm, day 11)?
Its value is “+”.

And the “growth or no growth” value (65°C, 5 ppm, day 12)?
The value was “+”.

What about the “growth or no growth” value (65°C, 5 ppm, day 13) of the same molecule?
The value was “+”.

What about the “growth or no growth” value (65°C, 5 ppm, day 14) of the same molecule?
The value was “+”.

And the “growth or no growth” value (65°C, 10 ppm, day 1)?
The value was “−”.

What about the “growth or no growth” value (65°C, 10 ppm, day 2) of the same molecule?
Its value is “−”.

What about the “growth or no growth” value (65°C, 10 ppm, day 3) of the same molecule?
Its value is “−”.

What about the “growth or no growth” value (65°C, 10 ppm, day 4) of the same molecule?
The value was “−”.

What about the “growth or no growth” value (65°C, 10 ppm, day 5) of the same molecule?
The value was “−”.

And the “growth or no growth” value (65°C, 10 ppm, day 6)?
Its value is “−”.

And the “growth or no growth” value (65°C, 10 ppm, day 7)?
Its value is “−”.

What about the “growth or no growth” value (65°C, 10 ppm, day 8) of the same molecule?
The value was “−”.

And the “growth or no growth” value (65°C, 10 ppm, day 9)?
Its value is “−”.

What about the “growth or no growth” value (65°C, 10 ppm, day 10) of the same molecule?
Its value is “−”.

What about the “growth or no growth” value (65°C, 10 ppm, day 11) of the same molecule?
Its value is “−”.

And the “growth or no growth” value (65°C, 10 ppm, day 12)?
Its value is “−”.

And the “growth or no growth” value (65°C, 10 ppm, day 13)?
The value was “−”.

And the “growth or no growth” value (65°C, 10 ppm, day 14)?
The value was “−”.

And the “growth or no growth” value (70°C, 5 ppm, day 1)?
Its value is “−”.

What about the “growth or no growth” value (70°C, 5 ppm, day 2) of the same molecule?
The value was “−”.

What about the “growth or no growth” value (70°C, 5 ppm, day 3) of the same molecule?
Its value is “−”.

And the “growth or no growth” value (70°C, 5 ppm, day 4)?
Its value is “−”.

And the “growth or no growth” value (70°C, 5 ppm, day 5)?
The value was “−”.

What about the “growth or no growth” value (70°C, 5 ppm, day 6) of the same molecule?
Its value is “−”.

What about the “growth or no growth” value (70°C, 5 ppm, day 7) of the same molecule?
Its value is “−”.

What about the “growth or no growth” value (70°C, 5 ppm, day 8) of the same molecule?
The value was “−”.

And the “growth or no growth” value (70°C, 5 ppm, day 9)?
Its value is “−”.

And the “growth or no growth” value (70°C, 5 ppm, day 10)?
The value was “−”.

What about the “growth or no growth” value (70°C, 5 ppm, day 11) of the same molecule?
Its value is “−”.

And the “growth or no growth” value (70°C, 5 ppm, day 12)?
Its value is “−”.

What about the “growth or no growth” value (70°C, 5 ppm, day 13) of the same molecule?
Its value is “−”.

What about the “growth or no growth” value (70°C, 5 ppm, day 14) of the same molecule?
Its value is “−”.

What about the “growth or no growth” value (70°C, 10 ppm, day 1) of the same molecule?
Its value is “−”.

And the “growth or no growth” value (70°C, 10 ppm, day 2)?
The value was “−”.

What about the “growth or no growth” value (70°C, 10 ppm, day 3) of the same molecule?
Its value is “−”.

What about the “growth or no growth” value (70°C, 10 ppm, day 4) of the same molecule?
Its value is “−”.

And the “growth or no growth” value (70°C, 10 ppm, day 5)?
Its value is “−”.

And the “growth or no growth” value (70°C, 10 ppm, day 6)?
Its value is “−”.

And the “growth or no growth” value (70°C, 10 ppm, day 7)?
Its value is “−”.

And the “growth or no growth” value (70°C, 10 ppm, day 8)?
The value was “−”.

And the “growth or no growth” value (70°C, 10 ppm, day 9)?
The value was “−”.

What about the “growth or no growth” value (70°C, 10 ppm, day 10) of the same molecule?
The value was “−”.

And the “growth or no growth” value (70°C, 10 ppm, day 11)?
Its value is “−”.

What about the “growth or no growth” value (70°C, 10 ppm, day 12) of the same molecule?
The value was “−”.

What about the “growth or no growth” value (70°C, 10 ppm, day 13) of the same molecule?
The value was “−”.

What about the “growth or no growth” value (70°C, 10 ppm, day 14) of the same molecule?
Its value is “−”.

And the germination (75° C., 10 ppm natamycin)?
Its germination is “no germination occurred”.

And the “growth or no growth” value (75°C, 5 ppm, day 9)?
The value was “+”.

And the “growth or no growth” value (75°C, 5 ppm, day 10)?
Its value is “+”.

And the germination (85° C., both concentrations (5 and 10 ppm))?
The germination was “no germination occurred”.

What about the germination (RT, 5 or 10 ppm natamycin) of the same molecule?
Its germination is “delayed germination”.

And the “growth or no growth” value (RT, 10 ppm, day 1)?
Its value is “−”.

What about the “growth or no growth” value (RT, 10 ppm, day 2) of the same molecule?
The value was “−”.

What about the “growth or no growth” value (RT, 10 ppm, day 3) of the same molecule?
Its value is “−”.

What about the “growth or no growth” value (RT, 10 ppm, day 4) of the same molecule?
Its value is “−”.

And the “growth or no growth” value (RT, 10 ppm, day 5)?
The value was “−”.

What about the “growth or no growth” value (RT, 10 ppm, day 6) of the same molecule?
The value was “−”.

And the “growth or no growth” value (RT, 10 ppm, day 7)?
The value was “+”.

What about the “growth or no growth” value (RT, 10 ppm, day 8) of the same molecule?
Its value is “+”.

What about the “growth or no growth” value (RT, 10 ppm, day 9) of the same molecule?
The value was “+”.

And the “growth or no growth” value (RT, 10 ppm, day 10)?
The value was “+”.

What about the “growth or no growth” value (RT, 10 ppm, day 11) of the same molecule?
Its value is “+”.

And the “growth or no growth” value (RT, 10 ppm, day 12)?
Its value is “+”.

And the “growth or no growth” value (RT, 10 ppm, day 13)?
The value was “+”.

And the “growth or no growth” value (RT, 10 ppm, day 14)?
Its value is “+”.
